From PubChem BioAssay AID742 (SRMLSC, 2007)
Active and inactive are the calls of the source. No rule for the calls is given here.

Experiments:
[1] = inhibitors of Her2 kinase expression, dose response, cell-based, AlphaScreen, CellTiter-Glo viability (AID 742); conditions: human cells, Her2 expression AlphaScreen; CTG viability; at 9.62 µM (top of the series)
[2] = test system: human cells, Her2 expression AlphaScreen; CTG viability; assay: as above; conditions: viability, CellTiter-Glo

For `CCOc1ccc(NC(=O)C/C(N)=N/O)cc1`, which Her2 inhibition [1] is on record?
The Her2 inhibition was -1.78% (inactive).

And the EC50 [2]?
Its EC50 is greater than 9.62 µM.

With `CCN(C(=O)COC(=O)c1cc(C)n(-c2ccc(F)cc2)c1C)C1CCS(=O)(=O)C1` (configuration not stated) as the molecule, how does the Her2 inhibition [1] read?
The Her2 inhibition was -2.5% (inactive).

What about the EC50 [2] of the same molecule?
The EC50 was greater than 9.62 µM.

Which Her2 inhibition [1] does the source give for `Cn1c(=O)c2c(SCc3cccc(C(F)(F)F)c3)nc(-c3ccco3)nc2n(C)c1=O` here?
The Her2 inhibition was -20.9% (inactive).

And the EC50 [2]?
The EC50 was greater than 9.62 µM.

Which Her2 inhibition [1] does the source give for `CCOc1ccccc1N(CC(=O)N1CCOCC1)S(=O)(=O)c1ccccc1` here?
The Her2 inhibition was 3.98% (inactive).

What about the EC50 [2] of the same molecule?
Its EC50 is greater than 9.62 µM.

Which Her2 inhibition [1] does the source give for `CN1CCN(c2ccc(C(N)=O)cc2N)CC1` here?
Its Her2 inhibition is -16.8% (inactive).

And the EC50 [2]?
Its EC50 is greater than 9.62 µM.

Which results are given for `Clc1ccc(CSC2=NCCCN2)cc1Cl`?
Her2 inhibition [1]: -30.5% (inactive); EC50 [2]: > 9.62 µM

Which Her2 inhibition [1] does the source give for `CCOc1ccc(-c2nnn(CC(=O)c3cc(OC)ccc3OC)n2)cc1` here?
Its Her2 inhibition is -22.6% (inactive).

And the EC50 [2]?
The EC50 was greater than 9.62 µM.

Which Her2 inhibition [1] does the source give for `COCCn1c(Cc2ccccc2)nnc1SCC(=O)N(C)C` here?
The Her2 inhibition was 6.46% (inactive).

What about the EC50 [2] of the same molecule?
The EC50 was greater than 9.62 µM.

With `CCCCC(CC)Cn1c2nc3ccccc3nc2c2c(=N)oc(C)nc21` (configuration not stated) as the molecule, how does the Her2 inhibition [1] read?
The Her2 inhibition was -5.07% (inactive).

What about the EC50 [2] of the same molecule?
The EC50 was greater than 9.62 µM.

Which results are given for `N#Cc1c(N)sc(=S)c2c1CCN(Cc1ccccc1)C2`?
Her2 inhibition [1]: -20.9% (inactive); EC50 [2]: > 9.62 µM

Which results are given for `COc1ccc(C(=O)c2no[n+]([O-])c2C(=O)c2ccc(OC)cc2)cc1`?
Her2 inhibition [1]: -48.2% (inactive); EC50 [2]: > 9.62 µM

With `O=C(CSc1oc(-c2ccccc2)nc1S(=O)(=O)c1ccc(F)cc1)NCC1CCCO1` (configuration not stated) as the molecule, how does the Her2 inhibition [1] read?
Its Her2 inhibition is 11.4% (inactive).

And the EC50 [2]?
The EC50 was greater than 9.62 µM.

With `Cc1nnc(SCc2nnc(-c3ccccc3Br)o2)n1-c1ccccc1` as the molecule, how does the Her2 inhibition [1] read?
Its Her2 inhibition is -17.1% (inactive).

And the EC50 [2]?
Its EC50 is greater than 9.62 µM.

With `CCOC(=O)N1CCN(C(=O)CSCc2nc(-c3ccccc3C)oc2C)CC1` as the molecule, how does the Her2 inhibition [1] read?
The Her2 inhibition was -0.97% (inactive).

What about the EC50 [2] of the same molecule?
The EC50 was greater than 9.62 µM.

Which Her2 inhibition [1] does the source give for `Cn1cnc2c1c(=O)[nH]c(=O)n2C` here?
The Her2 inhibition was -20.9% (inactive).

And the EC50 [2]?
The EC50 was greater than 9.62 µM.

What does the source list for `CCCCn1c(SCc2c(C)noc2C)nc2cc(S(N)(=O)=O)ccc21`?
Her2 inhibition [1]: -2.2% (inactive); EC50 [2]: > 9.62 µM

Which results are given for `O=S(=O)(CCSc1nc2ccccc2o1)c1nc2ccccc2s1`?
Her2 inhibition [1]: -10.1% (inactive); EC50 [2]: > 9.62 µM

Which results are given for `FC(F)(F)c1ccc(N2CCOCC2)c(Nc2nc3ccccc3n3cnnc23)c1`?
Her2 inhibition [1]: -15.5% (inactive); EC50 [2]: > 9.62 µM

Which Her2 inhibition [1] does the source give for `CC(C)OCCCNC(=O)c1c(N)n(Cc2cccs2)c2nc3ccccc3nc12` here?
Its Her2 inhibition is -14.5% (inactive).

And the EC50 [2]?
The EC50 was greater than 9.62 µM.

With `CC(C)COC(=O)N1CC(O)CC1C(=O)O` (configuration not stated) as the molecule, how does the Her2 inhibition [1] read?
Its Her2 inhibition is 7.84% (inactive).

What about the EC50 [2] of the same molecule?
The EC50 was greater than 9.62 µM.

Which Her2 inhibition [1] does the source give for `Cc1cc(NC(=O)CCCS(=O)(=O)c2nc(-c3cccs3)cc(C(F)(F)F)n2)no1` here?
The Her2 inhibition was 18.9% (inactive).

And the EC50 [2]?
Its EC50 is greater than 9.62 µM.

What does the source list for `CC(C)(C)OC(=O)NCCc1nnc(S(=O)(=O)Cc2ccc(Cl)cc2Cl)o1`?
Her2 inhibition [1]: -15.5% (inactive); EC50 [2]: > 9.62 µM

Which results are given for `CC(C)(C)NC(=O)CSc1ncnc2c1nnn2Cc1ccccc1Cl`?
Her2 inhibition [1]: -10.2% (inactive); EC50 [2]: > 9.62 µM

For `O=S(=O)(Nc1ccc2c(c1)CCC2)c1cccs1`, which Her2 inhibition [1] is on record?
Its Her2 inhibition is 10.2% (inactive).

And the EC50 [2]?
The EC50 was greater than 9.62 µM.

What does the source list for `O=C(CCn1[nH]c(=O)c2ccccc2c1=O)OC1CCCCC1`?
Her2 inhibition [1]: -7.62% (inactive); EC50 [2]: > 9.62 µM

What does the source list for `N#CCSc1nc2cc(C(=O)N3CCC(C(N)=O)CC3)ccc2c2nc3ccccc3n12`?
Her2 inhibition [1]: 5.14% (inactive); EC50 [2]: > 9.62 µM

Which results are given for `Clc1ccc(COC(Cn2ccnc2)c2ccc(Cl)cc2Cl)cc1` (configuration not stated)?
Her2 inhibition [1]: 1.73% (inactive); EC50 [2]: > 9.62 µM

Which Her2 inhibition [1] does the source give for `Cc1ccc(C(CC(=O)c2ccco2)SCCO)cc1` (configuration not stated) here?
Its Her2 inhibition is 10.4% (inactive).

And the EC50 [2]?
The EC50 was greater than 9.62 µM.

Which Her2 inhibition [1] does the source give for `CC1=CC(C)(C)Nc2ccc(OC(=O)c3ccco3)cc21` here?
The Her2 inhibition was 1.48% (inactive).

And the EC50 [2]?
The EC50 was greater than 9.62 µM.

With `CCN(CC)c1ccc2c(Cl)c(Br)c(=O)oc2c1` as the molecule, how does the Her2 inhibition [1] read?
The Her2 inhibition was 3.42% (inactive).

What about the EC50 [2] of the same molecule?
Its EC50 is greater than 9.62 µM.

Which Her2 inhibition [1] does the source give for `O=S1(=O)Nc2c(ccc3cccnc23)-c2ccccc21` here?
The Her2 inhibition was 12.6% (inactive).

What about the EC50 [2] of the same molecule?
Its EC50 is greater than 9.62 µM.
